# Laboratory results as given in US8518372B2, “Coronin 1 modulators for the treatment of autoimmune and Lymphoproliferative disorders and mycobacterial infections” (priority 2006, dated 2013).
# Like-named read-outs stand apart in the source and are kept apart here.
# Legend:
# [1] = system: M. bovis BCG in bone marrow derived macrophages; type: cell-based, mice; details: for lysosomal delivery of mycobacteria: infection 1 h, chase 3 h
# Mycobacterium bovis BCG = type: cell-based
# mycobacteria = experiment: Bacterial proliferation in presence or absence of calcineurin inhibitors; type: cell-based; details: FIG. 10h
# macrophages [2] = experiment: Protein synthesis in macrophages; type: cell-based, mice
# macrophages [3] = experiment: Macrophage viability
# [4] = system: bone marrow derived macrophages; experiment: Calcium fluorimetry (Fluo3) in macrophages; type: cell-based, mice; details: Fluo-3, FIG. 10a
compound,measurement,setting,value
CC(=O)OCOC(=O)CN(CC(=O)OCOC(C)=O)c1ccccc1OCCOc1ccccc1N(CC(=O)OCOC(C)=O)CC(=O)OCOC(C)=O [BAPTA-AM],lysosomal delivery of mycobacteria,"[1]; BAPTA-AM 1 μM, FIG. 10c,d",virtually all mycobacteria were transported to lysosomes
same,survival of mycobacteria within macrophages,"Mycobacterium bovis BCG; BAPTA-AM present, FIG. 10e",killed
"C=CC[C@@H]1/C=C(\C)C[C@H](C)C[C@H](OC)[C@H]2O[C@@](O)(C(=O)C(=O)N3CCCC[C@H]3C(=O)O[C@H](/C(C)=C/[C@@H]3CC[C@@H](O)[C@H](OC)C3)[C@H](C)[C@@H](O)CC1=O)[C@H](C)C[C@@H]2OC [FK506, tacrolimus]",lysosomal delivery of mycobacteria,"[1]; FK506 0.5 μM, FIG. 10g",complete relocation of mycobacteria to lysosomes
same,survival of mycobacteria within macrophages,"Mycobacterium bovis BCG; wild type bone marrow derived macrophages, calcineurin inhibitor present, FIG. 10h",unable to survive within macrophages
same,bacterial proliferation,mycobacteria,identical in the presence or absence
C[C@@H]1C[C@@H]([C@H](O)CC2CC(=O)NC(=O)C2)C(=O)[C@@H](C)C1 [cycloheximide],intracellular routing of mycobacteria,[1],did not result in alteration
same,survival of mycobacteria,Mycobacterium bovis BCG,did not result in alteration
same,protein synthesis,macrophages [2],efficiently blocked protein synthesis
same,macrophage viability,macrophages [3],without compromising macrophage viability
C[C@H](CCC(=O)O)C[C@H](C)C[C@H](C)C(=O)/C=C(\O)[C@H](C)C[C@H](C)C/C=C/[C@@H](C)[C@@H](O)[C@@H](C)[C@@H](O)C[C@@H]1CC[C@@](C)([C@H]2CC[C@@](C)([C@@H](C)O)O2)O1 [ionomycin],cytosolic Ca2+ flux upon stimulation,[4]; coronin 1 deficient macrophages,no Ca^2+ flux was observed
same,cytosolic Ca2+ flux upon stimulation,[4]; macrophages from wild type mice,accompanied with a flux of cytosolic Ca^2+
